Experimental data published in US11780839B2, “Compounds for treating Huntington's disease” (PTC THERAPEUTICS, INC., priority 2018, dated 2023).

System: Endogenous Huntingtin Protein
Assay: Endogenous Huntingtin Protein Assay (ELISA-based Meso Scale Discovery electrochemiluminescence)
Type: cell-based
Details: MSD electrochemiluminescence, Table 1
Procedure, shortened: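 Huntingtin was captured overnight at 4 °C on plates coated with 1 μg/mL MW1 (polyQ-expanded) or MAB2166 antibody and BSA-blocked. Detection used a rabbit monoclonal and then a SULFO-TAG goat anti-rabbit antibody (0.25 μg/mL, 1 h each, room temperature). Signal was read by electrochemiluminescence.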

| Structure (SMILES) | IC50 |
| --- | --- |
| CN(c1ncc(-c2ccc(-c3cc(=O)n(C)cn3)cc2O)nn1)C1CC(C)(C)NC(C)(C)C1 [Cpd 146, 6-(3-hydroxy-4-{3-[methyl(2,2,6,6-tetramethylpiperidin-4-yl)amino]-1,2,4-triazin-6-yl}phenyl)-3-methylpyrimidin-4(3H)-one] | ≤ 100 nM |
| CN(c1cnc(-c2ccc(-c3ccc4c(cnn4C)c3)cc2O)nn1)C1CC(C)(C)NC(C)(C)C1 [Cpd 342, 5-(1-methyl-1H-indazol-5-yl)-2-{6-[methyl(2,2,6,6-tetramethylpiperidin-4-yl)amino]-1,2,4-triazin-3-yl}phenol] | 100 to 500 nM |
| CC1(C)CC(Oc2ncc(-c3ccc(-c4cn[nH]c4)cc3O)nn2)CC(C)(C)N1 [Cpd 11, 5-(1H-pyrazol-4-yl)-2-{3-[(2,2,6,6-tetramethylpiperidin-4-yl)oxy]-1,2,4-triazin-6-yl}phenol] | ≤ 100 nM |
| CC1(C)CC(Nc2cnc(-c3ccc(-c4cn[nH]c4)cc3O)nn2)CC(C)(C)N1 [Cpd 396, 5-(1H-pyrazol-4-yl)-2-{6-[(2,2,6,6-tetramethylpiperidin-4-yl)amino]-1,2,4-triazin-3-yl}phenol] | ≤ 100 nM |
| Oc1cc(-c2cn[nH]c2)ccc1-c1cnc(N2CCC(CNC3CCCC3)C2)nn1 (stereo not drawn) [Cpd 386, 2-(3-{3-[(cyclopentylamino)methyl]pyrrolidin-1-yl}-1,2,4-triazin-6-yl)-5-(1H-pyrazol-4-yl)phenol] | 100 to 500 nM |
| Oc1cc(-c2cn[nH]c2)ccc1-c1cnc(N2CC[C@H](CNC3CCOCC3)C2)nn1 [Cpd 398, 2-{3-[(3R)-3-{[(oxan-4-yl)amino]methyl}pyrrolidin-1-yl]-1,2,4-triazin-6-yl}-5-(1H-pyrazol-4-yl)phenol] | ≤ 100 nM |
| CN(c1ncc(-c2ccc(-c3ccc4c(cnn4C)c3)cc2O)nn1)C1CC(C)(C)NC(C)(C)C1 [Cpd 177, 5-(1-methyl-1H-indazol-5-yl)-2-{3-[methyl(2,2,6,6-tetramethylpiperidin-4-yl)amino]-1,2,4-triazin-6-yl}phenol] | ≤ 100 nM |
| Cn1cc(-c2ccc(-c3cnc(NC4CC(C)(C)NC(C)(C)C4)nn3)c(O)c2)cn1 [Cpd 199, 5-(1-methyl-1H-pyrazol-4-yl)-2-{3-[(2,2,6,6-tetramethylpiperidin-4-yl)amino]-1,2,4-triazin-6-yl}phenol] | ≤ 100 nM |
| CC(C)(C)NC1CCCN(c2ncc(-c3ccc(-c4cn[nH]c4)cc3O)nn2)C1 (stereo not drawn) [Cpd 212, 2-{3-[3-(tert-butylamino)piperidin-1-yl]-1,2,4-triazin-6-yl}-5-(1H-pyrazol-4-yl)phenol] | 100 to 500 nM |
| CN(c1ncc(-c2ccc(-c3cc(F)c4c(c3)ncn4C)cc2O)nn1)C1CC(C)(C)NC(C)(C)C1 [Cpd 300, 5-(7-fluoro-1-methyl-1H-benzimidazol-5-yl)-2-{3-[methyl(2,2,6,6-tetramethylpiperidin-4-yl)amino]-1,2,4-triazin-6-yl}phenol] | 1000 to 3000 nM |
| Cn1cc(-c2ccc(-c3cnc(N[C@H]4CC(C)(C)NC(C)(C)[C@H]4F)nn3)c(O)c2)cn1 [Cpd 201, 2-(3-{[(3S,4S)-3-fluoro-2,2,6,6-tetramethylpiperidin-4-yl]amino}-1,2,4-triazin-6-yl)-5-(1-methyl-1H-pyrazol-4-yl)phenol] | ≤ 100 nM |
| CN(c1ncc(-c2ccc(-c3cccnc3)cc2O)nn1)C1CC(C)(C)NC(C)(C)C1 [Cpd 70, 2-{3-[methyl(2,2,6,6-tetramethylpiperidin-4-yl)amino]-1,2,4-triazin-6-yl}-5-(pyridin-3-yl)phenol] | 100 to 500 nM |
| CN1CCC2(CC1)CN(c1ncc(-c3ccc(-c4cn5ccnc5cn4)cc3O)nn1)C2 [Cpd 257, 5-(imidazo[1,2-a]pyrazin-6-yl)-2-[3-(7-methyl-2,7-diazaspiro[3.5]nonan-2-yl)-1,2,4-triazin-6-yl]phenol] | 1000 to 3000 nM |
| Cn1ncc(-c2ccc(-c3cnc(NC4CC(C)(C)NC(C)(C)C4)nn3)c(O)c2)n1 [Cpd 266, 5-(2-methyl-2H-1,2,3-triazol-4-yl)-2-{3-[(2,2,6,6-tetramethylpiperidin-4-yl)amino]-1,2,4-triazin-6-yl}phenol] | ≤ 100 nM |
| CNC1CCN(c2ncc(-c3ccc(-n4nccn4)cc3O)nn2)C1 (stereo not drawn) [Cpd 218, 2-{3-[3-(methylamino)pyrrolidin-1-yl]-1,2,4-triazin-6-yl}-5-(2H-1,2,3-triazol-2-yl)phenol] | 100 to 500 nM |
| CNC1CCN(c2ncc(-c3ccc(-n4cc(F)cn4)cc3O)nn2)C1 (stereo not drawn) [Cpd 219, 5-(4-fluoro-1H-pyrazol-1-yl)-2-{3-[3-(methylamino)pyrrolidin-1-yl]-1,2,4-triazin-6-yl}phenol] | 100 to 500 nM |
| CN(c1ncc(-c2ccc(-c3nnco3)cc2O)nn1)C1CC(C)(C)NC(C)(C)C1 [Cpd 106, 2-{3-[methyl(2,2,6,6-tetramethylpiperidin-4-yl)amino]-1,2,4-triazin-6-yl}-5-(1,3,4-oxadiazol-2-yl)phenol] | ≤ 100 nM |
| CN(c1ncc(-c2ccc(-c3ccc4ncccc4c3)cc2O)nn1)C1CC(C)(C)NC(C)(C)C1 [Cpd 185, 2-{3-[methyl(2,2,6,6-tetramethylpiperidin-4-yl)amino]-1,2,4-triazin-6-yl}-5-(quinolin-6-yl)phenol] | ≤ 100 nM |

| Structure (SMILES) | IC50 |
| --- | --- |
| CN(c1ncc(-c2ccc(-c3cn[nH]c3)cc2O)nn1)C1CCNCC1 [Cpd 19, 2-{3-[methyl(piperidin-4-yl)amino]-1,2,4-triazin-6-yl}-5-(1H-pyrazol-4-yl)phenol] | ≤ 100 nM |
| CC1(C)CC(Nc2ncc(-c3ccc(-c4ccnnc4)cc3O)nn2)CC(C)(C)N1 [Cpd 314, 5-(pyridazin-4-yl)-2-{3-[(2,2,6,6-tetramethylpiperidin-4-yl)amino]-1,2,4-triazin-6-yl}phenol] | ≤ 100 nM |
| CC1(C)CC(Nc2ncc(-c3ccc(-c4c[nH]nc4F)cc3O)nn2)CC(C)(C)N1 [Cpd 73, 5-(3-fluoro-1H-pyrazol-4-yl)-2-{3-[(2,2,6,6-tetramethylpiperidin-4-yl)amino]-1,2,4-triazin-6-yl}phenol] | ≤ 100 nM |
| CC1(C)CC(Nc2ncc(-c3ccc(Nc4cccnc4)cc3O)nn2)CC(C)(C)N1 [Cpd 315, 5-[(pyridin-3-yl)amino]2-{3-[(2,2,6,6-tetramethylpiperidin-4-yl)amino]-1,2,4-triazin-6-yl}phenol] | ≤ 100 nM |
| CN1CCC2(CC1)CN(c1ncc(-c3ccc(-c4ccc5nccn5n4)cc3O)nn1)C2 [Cpd 256, 5-(imidazo[1,2-b]pyridazin-6-yl)-2-[3-(7-methyl-2,7-diazaspiro[3.5]nonan-2-yl)-1,2,4-triazin-6-yl]phenol] | 100 to 500 nM |
| CC(=O)c1cn(-c2ccc(-c3cnc(N(C)C4CC(C)(C)NC(C)(C)C4)nn3)c(O)c2)cn1 [Cpd 140, 1-[1-(3-hydroxy-4-{3-[methyl(2,2,6,6-tetramethylpiperidin-4-yl)amino]-1,2,4-triazin-6-yl}phenyl)-1H-imidazol-4-yl]ethan-l-one] | ≤ 100 nM |
| CN(c1ncc(-c2ccc(-c3ccc4c(cnn4C)n3)cc2O)nn1)C1CC(C)(C)NC(C)(C)C1 [Cpd 198, 5-(1-methyl-1H-pyrazolo[4,3-b]pyridin-5-yl)-2-{3-[methyl(2,2,6,6-tetramethylpiperidin-4-yl)amino]-1,2,4-triazin-6-yl}phenol] | ≤ 100 nM |
| CC1CC(Oc2ncc(-c3ccc(-c4cn[nH]c4)cc3O)nn2)CC(C)N1 (stereo not drawn) [Cpd 82, 2-{3-[(2,6-dimethylpiperidin-4-yl)oxy]-1,2,4-triazin-6-yl}-5-(1H-pyrazol-4-yl)phenol] | 100 to 500 nM |
| Cc1cnn(-c2ccc(-c3cnc(N(C)C4CC(C)(C)NC(C)(C)C4)nn3)c(O)c2)c1 [Cpd 94, 5-(4-methyl-1H-pyrazol-1-yl)-2-{3-[methyl(2,2,6,6-tetramethylpiperidin-4-yl)amino]-1,2,4-triazin-6-yl}phenol] | 100 to 500 nM |
| Cn1nnc2nc(-c3ccc(-c4cnc(N5CCC(NC(C)(C)C)C5)nn4)c(O)c3)ccc21 (stereo not drawn) [Cpd 215, 2-{3-[3-(tert-butylamino)pyrrolidin1-yl]-1,2,4-triazin-6-yl}-5-(1-methyl-1H-[1,2,3]triazolo[4,5-b]pyridin-5-yl)phenol] | 100 to 500 nM |
| Oc1cc(-c2cn[nH]c2)ccc1-c1cnc(N2C[C@H]3CNCC[C@H]3C2)nn1 [Cpd 327, 2-{3-[(3aR,7aR)-octahydro-2H-pyrrolo[3,4-c]pyridin-2-yl]-1,2,4-triazin-6-yl}-5-(1H-pyrazol-4-yl)phenol] | ≤ 100 nM |
| CN(c1ncc(-c2ccc(-c3cccs3)cc2O)nn1)C1CC(C)(C)NC(C)(C)C1 [Cpd 53, 2-{3-[methyl(2,2,6,6-tetramethylpiperidin-4-yl)amino]-1,2,4-triazin-6-yl}-5-(thiophen-2-yl)phenol] | 100 to 500 nM |
| COCC(C)NC1CCN(c2ncc(-c3ccc(-c4cn[nH]c4)cc3O)nn2)C1 (stereo not drawn) [Cpd 336, 2-(3-{3-[(1-methoxypropan-2-yl)amino]pyrrolidin-1-yl}-1,2,4-triazin-6-yl)-5-(1H-pyrazol-4-yl)phenol] | ≤ 100 nM |
| CC1(NC2CCN(c3ncc(-c4ccc(-c5cn[nH]c5)cc4O)nn3)C2)CCOCC1 (stereo not drawn) [Cpd 362, 2-(3-{3-[(4-methyloxan-4-yl)amino]pyrrolidin-l-yl}-1,2,4-triazin-6-yl)-5-(1H-pyrazol-4-yl)phenol] | ≤ 100 nM |
| CN(c1ncc(-c2ccc(-n3cnc(Cl)c3)cc2O)nn1)C1CC(C)(C)NC(C)(C)C1 [Cpd 59, 5-(4-chloro-1H-imidazol-1-yl)-2-{3-[methyl(2,2,6,6-tetramethylpiperidin-4-yl)amino]-1,2,4-triazin-6-yl}phenol] | ≤ 100 nM |
| Cc1ncn(-c2ccc(-c3cnc(N(C)C4CC(C)(C)NC(C)(C)C4)nn3)c(O)c2)n1 [Cpd 51, 2-{3-[methyl(2,2,6,6-tetramethylpiperidin-4-yl)amino]-1,2,4-triazin-6-yl}-5-(3-methyl-1H-1,2,4-triazol-1-yl)phenol] | > 500 nM |
| Cn1ccc(-c2ccc(-c3cnc(N4CCC(NC(C)(C)C)C4)nn3)c(O)c2)n1 (stereo not drawn) [Cpd 175, 2-{3-[3-(tert-butylamino)pyrrolidin-1-yl]-1,2,4-triazin-6-yl}-5-(1-methyl-1H-pyrazol-3-yl)phenol] | 1000 to 3000 nM |
| CC(C)(C)NCC1CCN(c2ncc(-c3ccc(-c4cn[nH]c4)cc3O)nn2)C1 (stereo not drawn) [Cpd 390, 2-(3-{3-[(tert-butylamino)methyl]pyrrolidin-1-yl}-1,2,4-triazin-6-yl)-5-(1H-pyrazol-4-yl)phenol] | ≤ 100 nM |
